Experimental data taken from US20080026996A1, “Selective Vpac2 Receptor Reptide Agonists” (ELI LILLY AND COMPANY, priority 2004, published 2008).
Where no end group is shown, it is not given here. [ ]: non-standard residue; d: D form. The star is where a group is joined. hArg = N=C(N)NCCCC[C@H](N)C(=O)O; Nle = CCCC[C@H](N)C(=O)O; Hexanoyl = CCCCCC(=O)*; Aib = CC(C)(N)C(=O)O

Assays:
[1] = target: T1, human PAC1 (Homo sapiens, UniProt P41586); assay: DiscoveRx cAMP in vitro potency, CHO-PO cells transiently transfected with human PAC1 receptor; format: cell-based; design: expressed in transfected cells; host or cells: CHO-PO, transient (Lipofectamine); conditions: cAMP generation; mean of two independent runs; read-out: Human PAC1 Receptor: DiscoveRx EC50
T1 sequence (P41586 21-468): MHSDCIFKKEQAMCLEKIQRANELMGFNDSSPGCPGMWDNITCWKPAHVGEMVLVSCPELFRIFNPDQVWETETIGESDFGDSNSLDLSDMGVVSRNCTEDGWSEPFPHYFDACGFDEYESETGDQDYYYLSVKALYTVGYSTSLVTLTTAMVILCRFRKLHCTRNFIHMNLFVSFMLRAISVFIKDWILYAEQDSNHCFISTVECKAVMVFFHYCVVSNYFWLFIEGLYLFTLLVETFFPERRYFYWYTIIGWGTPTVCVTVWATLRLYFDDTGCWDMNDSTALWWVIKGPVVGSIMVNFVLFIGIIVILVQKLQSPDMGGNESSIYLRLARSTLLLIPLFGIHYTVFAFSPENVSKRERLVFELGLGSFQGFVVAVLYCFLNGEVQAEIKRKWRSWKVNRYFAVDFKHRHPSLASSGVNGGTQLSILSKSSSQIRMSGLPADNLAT
Description: Also, the cells are washed twice. The cells are incubated in assay buffer plus IBMX for 15 minutes at room temperature. […] The stimuli are present for 30 minutes. Then, the assay buffer is gently removed. […] At day 3, the assay described above for the VPAC2 receptor cell line is performed.

[2] = target: T2, human VPAC1 (Homo sapiens, UniProt P32241); assay: Filter binding assay, membranes of cells transiently transfected with human VPAC1, 125I-labeled VIP tracer (Table 2); design: expressed in transfected cells; conditions: read-out: Human VPAC1 Receptor Binding
T2 sequence (P32241 31-457): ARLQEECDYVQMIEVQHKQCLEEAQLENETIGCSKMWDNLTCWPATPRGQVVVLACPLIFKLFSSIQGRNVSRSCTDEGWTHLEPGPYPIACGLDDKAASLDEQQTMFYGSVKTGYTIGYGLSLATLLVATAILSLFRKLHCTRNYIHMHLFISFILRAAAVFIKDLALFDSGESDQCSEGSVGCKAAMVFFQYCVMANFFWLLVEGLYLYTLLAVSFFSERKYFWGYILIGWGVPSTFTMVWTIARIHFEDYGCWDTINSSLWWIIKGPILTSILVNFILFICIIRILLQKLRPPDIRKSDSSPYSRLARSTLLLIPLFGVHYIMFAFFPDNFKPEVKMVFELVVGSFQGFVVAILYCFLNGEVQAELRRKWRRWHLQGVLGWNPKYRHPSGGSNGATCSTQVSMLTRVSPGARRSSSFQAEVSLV
Summary of the method: (§1)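 Scintillation counting of filter-retained radioligand gave the read-out. Compounds competed with the labelled tracer (about 40000 cpm) for 2.5 μg membranes during 1 hour of shaking in HEPES pH 7.4 buffer containing 0.5% BSA.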

[3] = target: T3, human VPAC2 (Homo sapiens, UniProt P41587); assay: Filter binding assay, membranes of stable VPAC2 cell line, 125I-labeled VIP tracer (Table 2); conditions: read-out: Human VPAC2 Receptor Binding
T3 construct: expressed in transfected cells
T3 sequence (P41587 24-438): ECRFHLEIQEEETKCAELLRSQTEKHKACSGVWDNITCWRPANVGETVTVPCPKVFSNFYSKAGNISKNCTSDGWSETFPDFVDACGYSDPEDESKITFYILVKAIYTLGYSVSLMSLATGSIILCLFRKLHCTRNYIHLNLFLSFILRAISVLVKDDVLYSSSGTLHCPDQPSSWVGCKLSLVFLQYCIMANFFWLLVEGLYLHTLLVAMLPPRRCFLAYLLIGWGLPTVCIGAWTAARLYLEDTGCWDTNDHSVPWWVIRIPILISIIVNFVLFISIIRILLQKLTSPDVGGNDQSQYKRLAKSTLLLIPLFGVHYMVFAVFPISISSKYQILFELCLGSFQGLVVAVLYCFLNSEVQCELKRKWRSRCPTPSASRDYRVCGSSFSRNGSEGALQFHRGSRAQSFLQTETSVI
Summary of the method: as §1

[4] = target: T3, human VPAC2; assay: Alpha screen cAMP in vitro potency, human VPAC2 receptor; format: cell-based; conditions: cAMP generation; single result from two analyses performed in a single run; read-out: Human VPAC2 Receptor: Alpha Screen EC50
Summary of the method: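 Under reduced light, acceptor beads accompany the stimuli during a 60-minute incubation of cells in stimulation buffer (50,000 per well point). Donor beads go in with lysis buffer for a further 60–120 minutes, and the resulting AlphaScreen signal indicates cAMP levels.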

[5] = target: T4, rat VPAC2 receptor (Rattus norvegicus, UniProt P35000); assay: DiscoveRx in vitro potency, CHO-PO cells transiently transfected with rat VPAC 2 receptor DNA; format: cell-based; design: expressed in transfected cells; host or cells: CHO-PO, transient
T4 sequence (P35000 23-437): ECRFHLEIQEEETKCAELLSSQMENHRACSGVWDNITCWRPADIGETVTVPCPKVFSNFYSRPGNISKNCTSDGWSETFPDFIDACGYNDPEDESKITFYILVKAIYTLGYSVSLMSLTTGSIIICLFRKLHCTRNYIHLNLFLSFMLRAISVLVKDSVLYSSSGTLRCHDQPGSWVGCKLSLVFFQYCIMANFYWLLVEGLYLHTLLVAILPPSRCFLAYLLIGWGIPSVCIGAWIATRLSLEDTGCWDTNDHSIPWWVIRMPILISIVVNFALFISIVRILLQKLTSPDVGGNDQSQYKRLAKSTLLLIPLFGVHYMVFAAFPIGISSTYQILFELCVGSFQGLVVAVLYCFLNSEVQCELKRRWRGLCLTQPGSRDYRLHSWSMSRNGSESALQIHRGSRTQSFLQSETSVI
Description: Also, the cells are washed twice. […] The stimuli are present for 30 minutes. Then, the assay buffer is gently removed.

[6] = Rat serum stability studies (remaining active peptide by DiscoveRx cAMP on CHO-VPAC2 cells); format: in vitro ADME
Summary of the method: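 Rat serum, 18 h: +aprotinin aliquot at 4° C, no-aprotinin aliquot at 37° C. Then 30 min RT step, supernatant removed, 1 h shaking at 300 rpm. DiscoveRx cAMP kit on CHO-VPAC2; EC50 from cAMP data vs standards.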

[7] = target: T1, human PAC1; assay: Filter binding assay, membranes of cells transiently transfected with human PAC1, 125I-labeled PACAP-27 tracer (Table 2); design: expressed in transfected cells; conditions: read-out: Human PAC1 Receptor Binding
Summary of the method: as §1

Compound | EC50 [1] [nM] | IC50 [2] [nM] | IC50 [3] [nM] | EC50 [4] [nM] | EC50 [5] [nM] | Rat Serum Stability (Estimated purity in % after 72 hours) [6] [%] | Rat Serum Stability (estimated purity in % after 18 hours) [6] [%] | IC50 [7] [nM]
HSDAWFTDNYTRLRKQVAAKKYLQSIKNKRYGGPSSGAPPPS [Agonist P69] | 104 | – | – | – | – | – | – | –
HSDAVFTDNWTRLRKQVAAKKYLQSIKNKRYGGPSSGAPPPS [Agonist P27] | > 100 | – | – | – | – | – | – | –
H-HSDAVFTDNYTRLRKQVAAKKYLQSIQNKRYGGPSSGAPPPS [Agonist P74] | 145 | – | – | – | – | – | – | –
HSDFVFTDNYTRLRKQVAAKKYLQSIKNKRYGGPSSGAPPPS [Agonist P52] | > 1000 | – | – | – | – | – | – | –
CCCCCC(=O)N[C@@H](Cc1c[nH]cn1)C(=O)N[C@@H](CO)C(=O)N[C@@H](CC(=O)O)C(=O)N[C@@H](C)C(=O)N[C@H](C(=O)N[C@@H](Cc1ccccc1)C(=O)N[C@H](C(=O)N[C@@H](CC(=O)O)C(=O)N[C@@H](CC(N)=O)C(=O)N[C@@H](Cc1ccc(O)cc1)C(=O)N[C@H](C(=O)N[C@@H](CCCN)C(=O)N[C@@H](CC(C)C)C(=O)N[C@@H](CCCNC(=N)N)C(=O)NC(C)(C)C(=O)N[C@@H](CCC(N)=O)C(=O)N[C@H](C(=O)N[C@@H](C)C(=O)N[C@@H](C)C(=O)NC(C)(C)C(=O)N[C@@H](CCCCN)C(=O)N[C@@H](Cc1ccc(O)cc1)C(=O)N[C@@H](CC(C)C)C(=O)N[C@@H](CCC(N)=O)C(=O)N[C@@H](CO)C(=O)N[C@H](C(=O)N[C@@H](CCCN)C(=O)N[C@@H](CC(N)=O)C(=O)N[C@@H](CCCN)C(=O)NCC(=O)NCC(=O)N1CCC[C@H]1C(=O)N[C@@H](CO)C(=O)N[C@@H](CO)C(=O)NCC(=O)N[C@@H](C)C(=O)N1CCC[C@H]1C(=O)N1CCC[C@H]1C(=O)N1CCC[C@H]1C(=O)N[C@@H](CO)C(=O)O)[C@@H](C)CC)C(C)C)[C@@H](C)O)[C@@H](C)O)C(C)C [Agonist P326] | – | > 3000 | 0.33 | 0.21 | 0.09 | 49.6 | 90.10 | > 25000
HLDAVFTDNYTRLRKQVAAKKYLQSIKNKRYGGPSSGAPPPS [Agonist P46] | > 1000 | – | – | – | – | – | – | –
H-HSDAVFTDNYTRLRKQVAAKKYLQSIKNKRYC [Agonist P37] | 35.6 | – | – | – | – | – | – | –
Hexanoyl-HSDAVFTDNYTRLRKQVAAQKYLQSIKNKRYGGPSSGAPPPS [Agonist P150] | – | 444 | 0.25 | 0.18 | 0.1 | – | 0.21 | 916
CCCCCC(=O)N[C@@H](Cc1c[nH]cn1)C(=O)N[C@@H](CO)C(=O)N[C@@H](CC(=O)O)C(=O)N[C@@H](C)C(=O)N[C@H](C(=O)N[C@@H](Cc1ccccc1)C(=O)N[C@H](C(=O)N[C@@H](CC(=O)O)C(=O)N[C@@H](CC(N)=O)C(=O)N[C@@H](Cc1ccc(O)cc1)C(=O)N[C@H](C(=O)N[C@@H](CCCNC(=N)N)C(=O)N[C@@H](CC(C)C)C(=O)N[C@@H](CCCNC(=N)N)C(=O)N[C@@H](CCCCN)C(=O)N[C@@H](CCC(N)=O)C(=O)N[C@H](C(=O)N[C@@H](C)C(=O)N[C@@H](C)C(=O)NC(C)(C)C(=O)N[C@@H](CCCCN)C(=O)N[C@@H](Cc1ccc(O)cc1)C(=O)N[C@@H](CC(C)C)C(=O)N[C@@H](CCC(N)=O)C(=O)N[C@@H](CO)C(=O)N[C@H](C(=O)N[C@@H](CCCCN)C(=O)N[C@@H](CC(N)=O)C(=O)N[C@@H](CCCCN)C(=O)N[C@@H](CCCNC(=N)N)C(=O)N[C@@H](Cc1ccc(O)cc1)C(=O)NCC(=O)NCC(=O)N1CCC[C@H]1C(=O)N[C@@H](CO)C(=O)N[C@@H](CO)C(=O)NCC(=O)N[C@@H](C)C(=O)N1CCC[C@H]1C(=O)N1CCC[C@H]1C(=O)N1CCC[C@H]1C(=O)N[C@@H](CO)C(=O)O)[C@@H](C)CC)C(C)C)[C@@H](C)O)[C@@H](C)O)C(C)C [Agonist P169] | – | 240 | 0.26 | 0.14 | 0.07 | – | 0.40 | 482
Hexanoyl-HSDAVFTDNYTRLRKQVAAK[Aib]YLQSIKNKRYGGPSSGAPPPS [Agonist P170] | – | 275 | 0.34 | 0.18 | 0.15 | – | 0.31 | 200
Hexanoyl-HSDAVFTDNYTRL[hArg]KQVAAKKYLQSIKNKRYGGPSSGAPPPS [Agonist P305] | – | 268 | 0.17 | 0.17 | 0.04 | – | 0.23 | 171
HSDAFFTDNYTRLRKQVAAKKYLQSIKNKRYGGPSSGAPPPS [Agonist P58] | 35.6 | – | – | – | – | – | – | –
HSDYVFTDNYTRLRKQVAAKKYLQSIKNKRYGGPSSGAPPPS [Agonist P51] | > 1000 | – | – | – | – | – | – | –
Hexanoyl-HSDAVFTDNYTRLK[Aib]QVAA[Aib]KYLQSIKNKRYGGPSSGAPPPS [Agonist P318] | – | > 3000 | 0.63 | 0.32 | 0.09 | – | 29.95 | > 25000
HSDTVFTDNYTRLRKQVAAKKYLQSIKNKRYGGPSSGAPPPS [Agonist P54] | > 1000 | – | – | – | – | – | – | –
Hexanoyl-HSDAVFTDNYTRLR[Aib]QLAA[Aib]KYLQSIKNKRYGGPSSGAPPPS [Agonist P291] | – | > 3000 | 0.45 | 0.36 | 0.06 | – | 28.09 | > 25000
Hexanoyl-HSDAVFTDNYTRLR[Aib]Q[Nle]AA[Aib]KYLQSIKNKRYGGPSSGAPPPS [Agonist P325] | – | > 3000 | 0.4 | 0.24 | 0.04 | – | 13.13 | > 25000
Hexanoyl-HSDAVFTDNYTRLR[Aib]QVAAKKYLQSIKNKRYGGPSSGAPPPS [Agonist P168] | – | 234 | 0.21 | 0.27 | 0.05 | – | 10.47 | 538
Hexanoyl-HSDAVFTDNYTRLRQQVAAKKYLQSIKNKRYGGPSSGAPPPS [Agonist P177] | – | 128 | 0.7 | 0.21 | 0.1 | – | 0.49 | 276
